Source: PMC7397249, “Properly Substituted Cyclic Bis-(2-bromobenzylidene) Compounds Behaved as Dual p300/CARM1 Inhibitors and Induced Apoptosis in Cancer Cells” (Molecules, 2020)

Experiments:
EZH2 = settings: cited from earlier work
p300 HAT = settings: cited from earlier work
CARM1 [1] = target: T1, CARM1 (Homo sapiens, UniProt Q86X55); design: method as in PMID 21612300; settings: cited from earlier work
T1 sequence (Q86X55 1-608): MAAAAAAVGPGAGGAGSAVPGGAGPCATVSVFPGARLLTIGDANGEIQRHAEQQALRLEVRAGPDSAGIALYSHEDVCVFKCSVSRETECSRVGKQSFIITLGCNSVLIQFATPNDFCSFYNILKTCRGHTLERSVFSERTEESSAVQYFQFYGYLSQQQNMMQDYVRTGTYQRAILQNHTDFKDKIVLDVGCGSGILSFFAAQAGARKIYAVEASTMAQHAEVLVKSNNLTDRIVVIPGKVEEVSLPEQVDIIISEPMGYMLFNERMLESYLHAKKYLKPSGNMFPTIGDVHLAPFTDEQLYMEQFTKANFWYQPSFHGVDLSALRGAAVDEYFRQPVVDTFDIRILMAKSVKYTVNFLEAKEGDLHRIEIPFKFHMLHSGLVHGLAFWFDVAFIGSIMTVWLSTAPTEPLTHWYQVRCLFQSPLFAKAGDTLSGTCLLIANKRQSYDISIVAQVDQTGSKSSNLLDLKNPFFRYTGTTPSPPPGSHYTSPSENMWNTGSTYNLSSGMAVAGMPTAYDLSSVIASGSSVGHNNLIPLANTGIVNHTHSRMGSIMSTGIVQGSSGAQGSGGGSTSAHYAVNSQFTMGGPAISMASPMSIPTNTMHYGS

PRMT1 = tested on: PRMT1; design: method as in PMID 21612300; settings: cited from earlier work
SET7 = tested on: SET7; design: method as in PMID 21612300; settings: cited from earlier work
SIRT1 = target: T2, SIRT1 (Homo sapiens, UniProt Q96EB6); experiment: Modified Fluor de Lys fluorescence-based assay, SIRT1; assay type: biochemical; settings: from 200 μM; p53 379-382 AMC substrate, NAD+
T2 construct: host or cells: E. coli
T2 sequence (Q96EB6 whole entry): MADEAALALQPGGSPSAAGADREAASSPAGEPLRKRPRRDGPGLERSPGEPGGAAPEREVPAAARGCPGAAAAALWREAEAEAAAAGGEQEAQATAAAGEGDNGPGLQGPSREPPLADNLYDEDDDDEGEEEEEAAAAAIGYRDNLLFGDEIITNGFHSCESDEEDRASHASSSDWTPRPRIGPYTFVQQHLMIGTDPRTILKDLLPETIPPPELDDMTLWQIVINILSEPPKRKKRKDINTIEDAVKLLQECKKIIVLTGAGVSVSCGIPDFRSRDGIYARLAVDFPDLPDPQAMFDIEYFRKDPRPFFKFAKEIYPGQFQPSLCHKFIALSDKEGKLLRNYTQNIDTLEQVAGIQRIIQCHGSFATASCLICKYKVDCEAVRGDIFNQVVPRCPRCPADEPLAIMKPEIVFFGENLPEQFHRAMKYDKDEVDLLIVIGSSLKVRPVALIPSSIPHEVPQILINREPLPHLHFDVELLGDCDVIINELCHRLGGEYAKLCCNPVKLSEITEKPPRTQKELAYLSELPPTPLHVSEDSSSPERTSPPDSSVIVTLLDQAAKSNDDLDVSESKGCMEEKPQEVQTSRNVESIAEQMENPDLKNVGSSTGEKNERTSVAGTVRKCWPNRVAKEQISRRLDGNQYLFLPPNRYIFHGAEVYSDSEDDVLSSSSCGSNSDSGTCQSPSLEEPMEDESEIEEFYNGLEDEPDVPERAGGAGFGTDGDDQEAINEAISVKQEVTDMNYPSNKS
Protocol: (§1) The newly synthesized compounds 4a–n were tested to determine their effects against acetylation and methylation epigenetic targets. First, 4a–n were screened in vitro against the two HAT enzymes p300 and PCAF. […] To determine the activity against SIRT1 and -2, 4a–n were tested starting from 200 μM solutions using a modified Fluor de Lys fluorescence-based assay with amino acids 379–382 (Arg-His-Lys-Lys(Ac)) of human p53 conjugated with aminomethylcoumarin as substrate and NAD^+ as co-substrate. […] Furthermore, 4a–n were tested against a human five-membered Polycomb repressive complex 2 (PRC2) containing EZH2, embryonic ectoderm development (EED), suppressor of zeste 12 (SUZ12), RbAp48, and adipocyte enhancer-binding protein (AEBP2), to assess their capability to inhibit the catalytic unit EZH2.
(§2) The SIRT inhibition assay was performed using human recombinant SIRT1 and SIRT2 produced in E. coli. Compounds were tested using a modified Fluor de Lys fluorescence-based assay kit based on the method described in the BioMol product sheet (AK-555, AK-556, Milan, Italy). […] The second stage is initiated by the addition of the Developer II (KI176), including nicotinamide (NAM), nicotinamide that stops the SIRT1/2 activity, and the fluorescent signal is produced. The fluorescence was measured on a fluorometric reader (Infinite 200 TECAN, Männedorf, Switzerland) with excitation set at 360 nm and emission detection set at 460 nm.

PRC2/EZH2 = PRC2/EZH2 (Homo sapiens, UniProt Q15910); experiment: EZH2/PRC2 assay (core histone, 3H-SAM); assay type: biochemical; settings: 10-dose, duplicate, from 400 μM
Sequence of PRC2/EZH2 (Q15022 whole entry): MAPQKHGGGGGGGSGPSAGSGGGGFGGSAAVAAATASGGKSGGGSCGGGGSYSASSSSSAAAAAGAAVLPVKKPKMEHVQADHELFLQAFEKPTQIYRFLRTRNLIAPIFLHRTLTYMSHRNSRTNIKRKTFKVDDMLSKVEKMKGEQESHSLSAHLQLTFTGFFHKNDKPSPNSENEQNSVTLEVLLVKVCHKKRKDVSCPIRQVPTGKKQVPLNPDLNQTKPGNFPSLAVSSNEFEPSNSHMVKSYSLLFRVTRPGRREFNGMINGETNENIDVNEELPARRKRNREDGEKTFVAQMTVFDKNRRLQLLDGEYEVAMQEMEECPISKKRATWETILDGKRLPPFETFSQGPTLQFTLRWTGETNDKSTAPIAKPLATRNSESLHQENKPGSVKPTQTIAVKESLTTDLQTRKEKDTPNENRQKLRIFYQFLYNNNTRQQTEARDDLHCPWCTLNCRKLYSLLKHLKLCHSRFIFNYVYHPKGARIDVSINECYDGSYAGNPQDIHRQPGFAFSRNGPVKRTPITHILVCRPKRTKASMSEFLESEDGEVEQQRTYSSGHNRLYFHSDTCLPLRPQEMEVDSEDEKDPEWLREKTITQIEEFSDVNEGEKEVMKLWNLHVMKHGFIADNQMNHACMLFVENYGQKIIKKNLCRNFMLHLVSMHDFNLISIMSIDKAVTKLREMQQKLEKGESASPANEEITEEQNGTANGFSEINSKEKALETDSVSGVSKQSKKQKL
Sequence of PRC2/EZH2 (Q09028 whole entry, further chain): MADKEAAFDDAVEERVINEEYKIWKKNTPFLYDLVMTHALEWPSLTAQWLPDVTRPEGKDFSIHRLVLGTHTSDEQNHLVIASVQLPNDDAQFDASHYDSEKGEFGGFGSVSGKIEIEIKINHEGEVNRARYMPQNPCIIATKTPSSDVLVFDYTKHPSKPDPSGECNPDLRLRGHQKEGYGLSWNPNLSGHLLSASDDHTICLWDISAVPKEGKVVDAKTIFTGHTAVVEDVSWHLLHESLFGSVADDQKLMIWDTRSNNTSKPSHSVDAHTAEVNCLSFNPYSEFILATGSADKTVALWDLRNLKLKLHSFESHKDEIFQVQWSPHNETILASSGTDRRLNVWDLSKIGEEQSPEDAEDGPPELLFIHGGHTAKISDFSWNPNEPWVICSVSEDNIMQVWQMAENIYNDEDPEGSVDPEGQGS
Sequence of PRC2/EZH2 (Q6ZN18 whole entry, further chain): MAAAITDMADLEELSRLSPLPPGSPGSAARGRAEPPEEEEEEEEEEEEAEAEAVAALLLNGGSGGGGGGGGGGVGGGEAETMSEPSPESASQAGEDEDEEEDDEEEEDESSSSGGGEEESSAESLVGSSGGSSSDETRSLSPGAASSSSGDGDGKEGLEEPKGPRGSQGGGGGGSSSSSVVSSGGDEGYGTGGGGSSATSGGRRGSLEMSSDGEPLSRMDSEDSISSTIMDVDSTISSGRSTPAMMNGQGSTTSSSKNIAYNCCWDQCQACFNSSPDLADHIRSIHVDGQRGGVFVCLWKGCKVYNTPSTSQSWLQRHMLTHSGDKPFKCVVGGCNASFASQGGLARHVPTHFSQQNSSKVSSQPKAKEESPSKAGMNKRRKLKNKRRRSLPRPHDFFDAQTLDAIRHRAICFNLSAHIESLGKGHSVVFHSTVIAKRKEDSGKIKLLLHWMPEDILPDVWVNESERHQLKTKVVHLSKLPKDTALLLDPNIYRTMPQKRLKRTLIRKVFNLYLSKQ
Sequence of PRC2/EZH2 (Q15910 whole entry): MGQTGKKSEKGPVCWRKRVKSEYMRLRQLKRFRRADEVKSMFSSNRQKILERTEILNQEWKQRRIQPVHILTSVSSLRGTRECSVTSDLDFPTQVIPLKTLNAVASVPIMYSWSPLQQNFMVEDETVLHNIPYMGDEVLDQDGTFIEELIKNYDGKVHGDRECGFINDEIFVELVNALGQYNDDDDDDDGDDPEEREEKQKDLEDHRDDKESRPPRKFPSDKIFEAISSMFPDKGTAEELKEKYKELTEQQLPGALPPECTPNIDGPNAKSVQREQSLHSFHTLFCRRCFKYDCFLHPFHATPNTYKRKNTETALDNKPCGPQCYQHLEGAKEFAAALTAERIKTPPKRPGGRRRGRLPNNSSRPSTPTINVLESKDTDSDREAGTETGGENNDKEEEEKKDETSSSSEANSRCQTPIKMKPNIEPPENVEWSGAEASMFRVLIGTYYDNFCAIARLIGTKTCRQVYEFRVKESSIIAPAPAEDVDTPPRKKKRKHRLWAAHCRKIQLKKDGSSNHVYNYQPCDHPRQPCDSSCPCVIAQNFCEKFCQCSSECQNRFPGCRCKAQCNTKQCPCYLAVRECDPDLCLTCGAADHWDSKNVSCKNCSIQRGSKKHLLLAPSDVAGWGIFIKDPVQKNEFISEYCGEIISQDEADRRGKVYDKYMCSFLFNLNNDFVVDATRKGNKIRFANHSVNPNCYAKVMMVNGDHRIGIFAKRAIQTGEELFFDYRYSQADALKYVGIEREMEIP
Sequence of PRC2/EZH2 (O75530 whole entry, further chain): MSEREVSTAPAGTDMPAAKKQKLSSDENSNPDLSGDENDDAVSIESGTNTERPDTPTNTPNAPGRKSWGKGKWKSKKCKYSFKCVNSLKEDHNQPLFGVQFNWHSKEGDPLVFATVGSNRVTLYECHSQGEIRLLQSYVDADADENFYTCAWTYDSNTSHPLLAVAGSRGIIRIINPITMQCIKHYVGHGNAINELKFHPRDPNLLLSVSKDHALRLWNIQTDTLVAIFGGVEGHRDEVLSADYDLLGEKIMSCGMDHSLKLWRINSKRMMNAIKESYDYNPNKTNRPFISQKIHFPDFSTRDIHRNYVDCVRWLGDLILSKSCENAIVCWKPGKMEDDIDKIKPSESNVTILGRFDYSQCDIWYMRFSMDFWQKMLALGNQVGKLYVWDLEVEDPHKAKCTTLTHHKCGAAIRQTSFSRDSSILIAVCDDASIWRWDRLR
Protocol: as §1
The EZH2 substrate (0.05 mg/mL core histone) was added in the freshly prepared reaction buffer (50 mM Tris-HCl (pH 8.0), 50 mM NaCl, 1 mM EDTA, 1 mM DTT, 1 mM PMSF, 1% DMSO). The PRC2 complex (complex of human EZH2, human EED, human SUZ12, human AEBP2, and human RbAp48) was delivered into the substrate solution and the mixture was mixed gently. Afterwards, the tested compounds dissolved in DMSO were delivered into the enzyme/substrate reaction mixture by using Acoustic Technology (Echo 550, LabCyte Inc. Sunnyvale, CA, USA) in nanoliter range, and ^3H-SAM was added into the reaction mixture to initiate the reaction. The reaction mixture was incubated for 1 h at 30 °C and then it was delivered to filter-paper for detection. The data were analyzed using Excel and GraphPad Prism software for IC50 curve fits. The experiments were performed in duplicate.

CARM1 [2] = target: T1, CARM1; experiment: CARM1 assay (histone H3, 3H-SAM); assay type: biochemical
Protocol: Histone H3 (5 μM) was added in freshly prepared reaction buffer (50 mM Tris-HCl (pH 8.5), 5 mM MgCl2, 50 mM NaCl, 0.01% Brij35, 1 mM DTT, 1% DMSO). CARM1 was delivered into the substrate solution and the mixture was mixed gently. Afterwards, the tested compounds dissolved in DMSO were delivered into the enzyme/substrate reaction mixture by using Acoustic Technology (Echo 550, LabCyte Inc. Sunnyvale, CA) in nanoliter range, and 1 µM ^3H-SAM was also added into the reaction mixture to initiate the reaction. The reaction mixture was incubated for 1 h at 30 °C and then it was delivered to filter-paper for detection. The data were analyzed using Excel and GraphPad Prism software for IC50 curve fits. The experiments were performed in triplicate.

SIRT2 = target: T3, SIRT2 (Homo sapiens, UniProt Q8IXJ6); experiment: Modified Fluor de Lys fluorescence-based assay, SIRT2; assay type: biochemical; settings: from 200 μM; p53 379-382 AMC substrate, NAD+
T3 construct: host or cells: E. coli
T3 sequence (Q8IXJ6 whole entry): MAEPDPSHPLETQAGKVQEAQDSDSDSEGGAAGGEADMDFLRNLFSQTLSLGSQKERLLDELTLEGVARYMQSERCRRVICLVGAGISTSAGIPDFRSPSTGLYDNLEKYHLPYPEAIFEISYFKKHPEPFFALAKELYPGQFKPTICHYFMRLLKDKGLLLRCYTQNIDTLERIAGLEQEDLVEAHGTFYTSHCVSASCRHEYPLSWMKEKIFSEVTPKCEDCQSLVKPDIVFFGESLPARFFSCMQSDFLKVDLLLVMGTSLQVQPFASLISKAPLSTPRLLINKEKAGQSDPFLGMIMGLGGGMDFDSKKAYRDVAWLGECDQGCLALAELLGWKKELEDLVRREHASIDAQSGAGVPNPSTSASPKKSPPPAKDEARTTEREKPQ
Protocol: as §1, §2

PCAF = target: T4, PCAF (Homo sapiens, UniProt Q92831); experiment: HotSpot HAT activity assay, PCAF; assay type: biochemical; settings: 10-dose, from 200 μM; histone H3, [acetyl-3H]-acetyl-CoA
T4 construct: PCAF (aa 492–658, 250 nM); purchased Reaction Biology Corporation
T4 sequence (Q92831 492-658): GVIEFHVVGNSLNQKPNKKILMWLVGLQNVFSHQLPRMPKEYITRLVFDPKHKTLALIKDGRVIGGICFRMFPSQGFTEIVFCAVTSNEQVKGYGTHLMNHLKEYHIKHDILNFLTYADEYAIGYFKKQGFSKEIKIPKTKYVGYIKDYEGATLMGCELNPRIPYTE
Protocol: as §1
(§3) The effect of tested derivatives on the catalytic activity of p300 and PCAF was determined in a HotSpot HAT activity assay by Reaction Biology Corporation (Malvern, PA, USA) according to the company’s standard operating procedure. In brief, the recombinant catalytic domains of PCAF (aa 492–658, 250 nM) or p300 (aa 1284–1673, 30 nM) were incubated with histone H3 as substrate (5 µM) and [Acetyl-^3H]-Acetyl Coenzyme A (3 µM) as an acetyl donor in reaction buffer (50 mM Tris-HCl (pH 8.0), 50 mM NaCl, 0.1 mM EDTA, 1 mM DTT, 1 mM PMSF, 1% DMSO) for 1 h at 30 °C in the presence or absence of a dose titration of the compounds. The reaction mixture was delivered to filter-paper for detection. IC50 values were analyzed using Excel and GraphPad Prism 6.0 software (GraphPad Software Inc., San Diego, CA, USA). The experiments for p300 were performed in triplicate.

p300 [3] = target: T5, p300 (Homo sapiens, UniProt Q09472); experiment: HotSpot HAT activity assay, p300; assay type: biochemical; settings: 10-dose, triplicate, from 200 μM; histone H3, [acetyl-3H]-acetyl-CoA
T5 construct: p300 (aa 1284–1673, 30 nM); purchased Reaction Biology Corporation
T5 sequence (Q09472 1284-1673): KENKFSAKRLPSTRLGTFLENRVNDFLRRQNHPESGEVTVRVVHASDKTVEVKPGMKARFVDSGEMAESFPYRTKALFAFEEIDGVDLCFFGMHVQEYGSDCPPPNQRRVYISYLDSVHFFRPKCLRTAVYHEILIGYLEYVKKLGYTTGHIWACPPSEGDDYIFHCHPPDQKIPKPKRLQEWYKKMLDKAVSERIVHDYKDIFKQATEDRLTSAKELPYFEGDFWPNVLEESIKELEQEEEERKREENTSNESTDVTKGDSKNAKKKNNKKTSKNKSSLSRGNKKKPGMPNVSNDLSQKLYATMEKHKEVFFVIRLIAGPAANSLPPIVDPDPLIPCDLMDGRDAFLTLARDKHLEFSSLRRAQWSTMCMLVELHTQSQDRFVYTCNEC
Protocol: as §1, §3

MCF-7 cells = experiment: Cell cycle and apoptosis (sub-G1) analysis by FACS in MCF-7 cells; assay type: cell-based, human; settings: 5 μM, 30 h
Protocol: (§4) Compounds 4a–n were tested at 5 μM for 30 h in NB4 […] and U937 AML cells among hematological cancers, and in MCF-7 breast cancer and SH-SY5Y neuroblastoma cells among solid cancers, to determine their effects in cell cycle and apoptosis induction.
(§5) In the same cell lines, the induction of apoptosis has been evaluated through the percentage of the sub-G1 peaks.
(§6) For colorimetric exclusion, the cells (2 × 10^5 cells/mL) were plated in multiwells in triplicate. After stimulations at different times and concentrations, cells were diluted in the ratio 1:1 in Trypan Blue (Sigma) and counted with an optical microscope. For cell cycle analyses, cells were plated (2 × 10^5 cells/mL) and were harvested, centrifuged at 1200 rpm for 5 min and resuspended in 500 μL of a hypotonic solution containing 1× PBS, Sodium Citrate 0.1%, 0.1% NP-40, RNAase A and […] Propidium Iodide (PI). After 30 min at room temperature (RT) in the dark, samples were acquired by FACS-Calibur (BD Bioscences, San Jose, CA, USA) using CellQuest software (BD Biosciences). The percentage in different phases of the cell cycle was determined by ModFit LT V3 software (Verity). All experiments were performed in triplicate. Cell death was measured as percentage of cells in sub-G1 phase as in [30].

NB4 cells = experiment: Cell cycle and apoptosis (sub-G1) analysis by FACS in NB4 cells; assay type: cell-based, human; settings: 5 μM, 30 h
Protocol: as §4, §5, §6

CARM1 [4] = experiment: Western blot of H3R17me2 (CARM1) in MCF-7 cells; assay type: cell-based, human; settings: 5 μM, 30 h
Protocol: (§7) In MCF-7 cells, the levels of acetyl-H3, acetyl-H4, H3K27me3, and H3R17me2 were detected by western blot analyses as functional tests for p300 (acH3 and acH4), EZH2 (H3K27me3) and CARM1 (H3R17me2) inhibition in cells, respectively (Figure 5).
(§8) The procedures were performed as described in [30, 31]. Primary antibodies used were: Ac-H3 (Millipore, Milan, Italy); Ac-H4 (Millipore, Milan, Italy); Ac-H3K9-14 (Diagenode, Ougrée, Belgium); Ac-α-tubulin (Sigma-Aldrich), H3K27me3 (Diagenode); H3R17me2 (Diagenode); EZH2 (Abcam, Cambridge, UK). H3 (Sigma-Aldrich), H4 (Abcam), GAPDH (Sigma) and ERKs (Santa Cruz, Biotechnology, TX, USA) were used to normalize the total protein extracts (see also Supplementary Material).

p300 [5] = experiment: Western blot of acetylation marks (p300 inhibition) in MCF-7 cells; assay type: cell-based, human; settings: 5 μM, 30 h
Protocol: as §7, §8

SMILES | IC50 (SIRT1) [µM] | IC50 (PRC2/EZH2) [µM] | IC50 (CARM1 [2]) [µM] | IC50 (SIRT2) [µM] | IC50 (PCAF) [µM] | IC50 (p300 [3]) [µM] | cell cycle: block in G1/S phase with almost total absence of cells in the G2/M phase (MCF-7 cells) | also measured
O=C1/C(=C/c2ccc(O)c(Br)c2)CN(Cc2ccccc2)C/C1=C\c1ccc(O)c(Br)c1 [Compound 2] | – | – | – | – | – | – | – | EZH2 inhibition (active/inactive) (EZH2; ref unpublished results): active; p300 HAT inhibition (active/inactive) (p300 HAT): inactive; CARM1 inhibition (active/inactive) (CARM1 [1]): active; PRMT1 inhibition (active/inactive) (PRMT1): inactive; SET7 inhibition (active/inactive) (SET7): inactive
O=C1/C(=C/c2cccc(Br)c2)CN(Cc2ccccc2)C/C1=C\c1cccc(Br)c1 [Compound 3, 1-benzyl-3,5-bis((E)-3-bromobenzylidene)piperidin-4-one] | – | – | – | – | – | – | – | EZH2 inhibition (in words) (EZH2): dual p300/EZH2 inhibitor; p300 inhibition (in words) (p300 HAT): dual p300/EZH2 inhibitor
O=C1/C(=C/c2ccccc2Br)CCC/C1=C\c1ccccc1Br [Compound 4a, 2,6-bis((E)-2-bromobenzylidene)cyclohexan-1-one] | > 200 | 117 ± 6 | 16.8 ± 3.4 | > 200 | > 200 | 1.38 ± 0.24 | almost total absence of cells | –
O=C1/C(=C/c2ccccc2Br)COC/C1=C\c1ccccc1Br [Compound 4b, 3,5-bis((E)-2-bromobenzylidene)tetrahydro-4H-pyran-4-one] | > 200 | – | 23.3 ± 0.5 | > 200 | > 200 | 2.56 ± 0.23 | – | –
O=C1/C(=C/c2ccccc2Br)CNC/C1=C\c1ccccc1Br [Compound 4c, 3,5-bis((E)-2-bromobenzylidene)piperidin-4-one] | > 200 | – | 44.8 ± 6 | > 200 | > 200 | 23.2 ± 0.51 | almost total absence of cells | –
CN1C/C(=C\c2ccccc2Br)C(=O)/C(=C/c2ccccc2Br)C1 [Compound 4d, 3,5-bis((E)-2-bromobenzylidene)-1-methylpiperidin-4-one] | > 200 | 46.7 ± 1.1 | 3.24 ± 1.22 | > 200 | > 200 | 2.66 ± 0.15 | almost total absence of cells | induction of apoptosis, % sub-G1 peaks (NB4 cells): 30 to 40%
O=C1/C(=C/c2ccccc2Br)CN(CCC(=O)c2ccccc2)C/C1=C\c1ccccc1Br [Compound 4i, 3,5-Bis((E)-2-bromobenzylidene)-1-(3-oxo-3-phenylpropyl)piperidin-4-one] | > 200 | 60.6 ± 10.5 | 6.96 ± 0.9 | > 200 | > 200 | 1.57 ± 0.72 | – | melting point: 95 to 97 °C; levels of H3R17me2 (CARM1 [4]): most effective; levels of acetyl-H4 (p300 [5]): decrease of the acetylation levels; levels of acetyl-α-tubulin (p300 [5]): decrease of the acetylation levels
CCCCCCCCCCCCCCCc1cccc(O)c1C(=O)O [anacardic acid, reference compound] | – | – | – | – | 40 ± 10.9 | – | – | –
